From PubChem BioAssay (NCI)
Values joined by “and” are separate entries in the source; they are usually repeats but may differ in a detail not shown here. Equal values may be shown once.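 Grown in 96-well plates, cells were treated for 48 hours with each compound at five concentrations. Insufficient inhibition: endpoint recorded as highest concentration tested. GI50: concentration for 50% inhibition of growth. Definition used: TGI = concentration required for complete inhibition of growth.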

Tests used:
Test in all cases: NCI tumour cell line growth inhibition, 48 h
COLO 205 colon = system: COLO 205 colon
IGROV1 ovarian = system: IGROV1 ovarian
K-562 leukemia = system: K-562 leukemia
KM12 colon = system: KM12 colon
LOX IMVI melanoma = system: LOX IMVI melanoma
MCF7 breast = system: MCF7 breast
RPMI-8226 leukemia = system: RPMI-8226 leukemia
SF-539 CNS = system: SF-539 CNS
SK-MEL-2 melanoma = system: SK-MEL-2 melanoma
SNB-19 CNS = system: SNB-19 CNS
U251 CNS = system: U251 CNS
HL-60(TB) leukemia = system: HL-60(TB) leukemia

| SMILES | TGI (COLO 205 colon) | TGI (IGROV1 ovarian) | TGI (K-562 leukemia) [µM] | TGI (KM12 colon) | TGI (LOX IMVI melanoma) | TGI (MCF7 breast) | TGI (RPMI-8226 leukemia) [µM] | TGI (SF-539 CNS) | TGI (SK-MEL-2 melanoma) | TGI (SNB-19 CNS) | TGI (U251 CNS) | TGI (HL-60(TB) leukemia) [µM] | GI50 (COLO 205 colon) [µM] | GI50 (IGROV1 ovarian) [µM] | GI50 (KM12 colon) [µM] | GI50 (LOX IMVI melanoma) [µM] | GI50 (SF-539 CNS) [µM] | GI50 (SK-MEL-2 melanoma) [µM] | GI50 (SNB-19 CNS) [µM] | GI50 (U251 CNS) [µM] |
| --- | --- | --- | --- | --- | --- | --- | --- | --- | --- | --- | --- | --- | --- | --- | --- | --- | --- | --- | --- | --- |
| COC1=C(OC)C(=O)C(C/C=C/c2c(Cl)nc3sccn23)=C(C)C1=O | 31.9 µM | 35.9 µM | 68.3 | 44.4 µM | 12.1 µM | 52.8 µM | 27.5 | 31.7 µM | 48.3 µM | 27.6 µM | 25.6 µM |  |  |  |  |  |  |  |  |  |
| C[n+]1ccc2/c(=C\C#N)c3ccccc3n21 | 45.4 µM | 78.3 µM | > 100 | 45.1 µM | 40.4 µM | 65 µM | 31.3 |  | 89.9 µM | 30.1 µM | 72.8 µM | 65.6 |  |  |  |  |  |  |  |  |
| CC(=O)C(C(=O)C(=O)Nc1cc(Cl)c(Cl)cc1Cl)c1csc(N)n1 (stereo not drawn) | > 100 µM | > 100 µM | > 100 | > 100 µM | > 100 µM |  | > 100 | > 100 µM | > 100 µM | > 100 µM | > 100 µM | > 100 |  |  |  |  |  |  |  |  |
| O=[N+]([O-])c1cc(C(F)(F)F)cc2c1SC1=Nc3ccccc3CN12 | > 100 µM | > 100 µM | > 100 | > 100 µM | > 100 µM | > 100 µM | > 100 | > 100 µM | > 100 µM | > 100 µM | > 100 µM | > 100 |  |  |  |  |  |  |  |  |
| Oc1ccccc1CNCc1ccccc1O | > 100 µM | > 100 µM | > 100 | > 100 µM | > 100 µM | > 100 µM | > 100 | > 100 µM | > 100 µM | > 100 µM | > 100 µM | > 100 |  |  |  |  |  |  |  |  |
| NCCNc1ccc(NCCN)c2c1C(=O)c1c(O)ccc(O)c1C2=O | 2.36 µM and 1.19 µM | 1.17 µM and 1.5 µM | 0.14 | 1.24 µM and 0.731 µM | 0.252 µM and 0.214 µM | 4.51 µM and 1.27 µM | 0.692 | 0.932 µM and 0.261 µM | 1.31 µM and 1.33 µM | 1.14 µM and 0.254 µM | 0.845 µM and 0.137 µM |  | 0.157 | 0.182 | 0.105 | 0.031 | < 0.0112 | 0.345 | 0.0145 | 0.0238 |
| CCC/C=C/C=C\C(=O)O[C@@H]1[C@@H](C)[C@]2(O)[C@@H]3C=C(C)C(=O)[C@H]3CC(COC(C)=O)=C[C@H]2[C@@H]2C(C)(C)[C@]12OC(C)=O | 22.5 µM | 109 µM | 128 | 106 µM | 57.7 µM | 83.1 µM | 95.8 | 83.5 µM | 104 µM | 114 µM | 69.1 µM | 30.5 |  |  |  |  |  |  |  |  |
| CCCc1cn2c(/C=N/N=C(N)N)c(-c3ccc([N+](=O)[O-])cc3)nc2s1 | 1.19 µM | 3.05 µM |  |  | 3.04 µM |  | 2.76 | 9.84 µM | 3.55 µM | 2.9 µM | 1.39 µM | 2.52 |  |  |  |  |  |  |  |  |
| Cn1cc(-c2csc(-c3cn(CCCN4CCCCC4)c4ccc(Br)cc34)n2)c2cccnc21 |  | 3.33 µM |  | 3.54 µM |  |  |  | 3.2 µM | 3.74 µM | 3.31 µM |  |  |  | 1.63 | 1.89 |  | 1.75 | 1.94 | 1.83 |  |
| Oc1c(Cl)c(Cl)c(O)c(-c2cnc(-c3ncc(-c4c(O)c(Cl)c(Cl)c(O)c4Cl)s3)s2)c1Cl | 97.2 µM | 37 µM | > 100 | > 100 µM |  | 52 µM |  | 81.7 µM | 54.1 µM | 88.1 µM | 48.7 µM | > 100 |  |  |  |  |  |  |  |  |
| O=C(N/N=C/c1cc(Cl)cc(Cl)c1[OH2+])c1ccncc1.O=S(=O)([O-])[O-].[Fe+2] | 40.5 µM | 15.4 µM | 51.4 | 29.4 µM | 0.332 µM |  | 5.98 | 36.4 µM | 94.9 µM | > 100 µM |  | 2.09 |  |  |  |  |  | 82.9 |  |  |
